US11085056B2, “Transfection complexes and methods of using the same” (MOLECULAR TRANSFER, INC., priority 2015, dated 2021)
Values joined by “and” are separate entries in the source; they are usually repeats but may differ in a detail not shown here. Equal entries are not always repeated.

Key:
HeLa Cells [1] = assay: Transfection of HeLa cells with DOTMA/DOPE/peptide and eGFP plasmid, fluorescent plate reader; type: cell-based; conditions: DOTMA/DOPE 1:1 plus peptide with RRRRRRRRRRRR (SEQ ID NO: 109) at n terminus; EF1Alpha eGFP plasmid; 0.01 mL complex; 42 hours
Protocol: (§1) Cells were plated to so that on the day of transfection the cells were 60-70% confluent in 96 well tissue culture plates. A DOMTA/DOPE Lipid solution (1:1 molar ratio) at 2 mg/mL in water were mixed with an equal volume of surface ligand peptides that had the nucleic acid binding moiety RRRRRRRRRRRR (SEQ ID NO: 109) covalently linked to the n terminus of each peptide during peptide synthesis. Peptides were at 2 mg/mL in water. The DOTMA/DOPE and the surface ligand peptide solution the transfection reagent was diluted 1 to 1 (v/v) in water. DOMTA/DOPE/PEPTIDE solutions were added to 0.1 mL of a plasmid DNA solution (EF1Alpha eGFP plasmid) at 5 μg/mL in OptiMEM. Lipofectamine 2000 was obtained from Life Technologies.
(§2) All solutions were at room temperature. A volume of 0.2 mL of a 5 μg/mL solution of DNA was aliquoted into each well of a non-tissue cultured treated plate. 4.0 μL of transfection reagents were added to DNA solutions respectively. The transfection reagent and DNA solution was mixed by pipetting up and down twice. Transfection complexes were formed for 10 minutes. After 10 minutes, 0.01 or 0.02 mL of the transfection complex was added to cells. HuVEC, HeLa, human adult keratinocytes, human primary adult fibroblast, and rat cortical neurons all respectively received 0.01 mL of the tramsfectopm complex. Human skeletal muscle cells, mouse C2C12 cells, Jurkat, and THP-1 cells received 0.02 mL of the transfection complex. Cells were incubated for 42 hours at 37° C. at 5% CO2. Plates were read on a fluorescent plate reader. Cells were also examined visually under a microscope to assess the extent of transfection (in terms of the percent of cells transfected) with a fluorescent microscope. Other modes of analysis, for example quantification with B-galactosidase or luciferase reports plasmids can also be used. […] Surface ligand that caused increase expression of GFP over the lipid DOTMA with no surface ligand were considered to enhance transfection or had higher % cells transfected were considered to enhance transfection. Peptides that gave greater than 2 fold enhancement are noted in bold and could be further optimized by adding different transfection enhancers or could be used with different cationic lipids or polymers.

HuVec Cells = assay: Transfection of HuVec cells with DOTMA/DOPE/peptide and eGFP plasmid, fluorescent plate reader; type: cell-based; conditions: DOTMA/DOPE 1:1 plus peptide with RRRRRRRRRRRR (SEQ ID NO: 109) at n terminus; EF1Alpha eGFP plasmid; 0.01 mL complex; 42 hours
Protocol: as §1, §2

NL-1 iPS Cells = assay: Transfection of NL-1 iPS cells with DOTMA/DOPE/peptide and eGFP plasmid, fluorescent plate reader; type: cell-based; conditions: DOTMA/DOPE 1:1 plus peptide with RRRRRRRRRRRR (SEQ ID NO: 109) at n terminus; EF1Alpha eGFP plasmid; 42 hours
Protocol: as §1, §2

C2C12 Cells = assay: Transfection of C2C12 cells with DOTMA/DOPE/peptide and eGFP plasmid, fluorescent plate reader; type: cell-based, mouse; conditions: DOTMA/DOPE 1:1 plus peptide with RRRRRRRRRRRR (SEQ ID NO: 109) at n terminus; EF1Alpha eGFP plasmid; 0.02 mL complex; 42 hours
Protocol: as §1, §2

Human Fibroblast Cells = assay: Transfection of human fibroblast cells with DOTMA/DOPE/peptide and eGFP plasmid, fluorescent plate reader; type: cell-based; conditions: DOTMA/DOPE 1:1 plus peptide with RRRRRRRRRRRR (SEQ ID NO: 109) at n terminus; EF1Alpha eGFP plasmid; 0.01 mL complex; 42 hours
Protocol: as §1, §2

Jurkat Cells = assay: Transfection of Jurkat cells with DOTMA/DOPE/peptide and eGFP plasmid, fluorescent plate reader; type: cell-based; conditions: DOTMA/DOPE 1:1 plus peptide with RRRRRRRRRRRR (SEQ ID NO: 109) at n terminus; EF1Alpha eGFP plasmid; 0.02 mL complex; 42 hours
Protocol: as §1, §2

some examined cell types = assay: Transfection expression and % cells transfected over the no peptide control; type: cell-based; conditions: on some examined cell types
Protocol: as §1, §2

HeLa Cells [2] = assay: Transfection of HeLa cells with DOTMA/SEQ ID NO: 72/peptide compared with Lipofectamine 2000; type: cell-based; conditions: fusogenic peptide 0.1 mg/mL
Protocol: as §1, §2
The fusogenic peptide was added to the DOMTA/peptide formulation to achieve a final concentration of 0.1 mg/mL to see if transfection reagents were further enhanced by the addition of a fusogenic peptide and could provide higher transfection efficiency into HeLa cells and expression than the commercially available Lipofectamine 2000.

[3] = 0.1 μL of DOTMA/SEQ ID NO: 72/Peptide in well of a 96 well plate
[4] = 0.2 μL of DOTMA/SEQ ID NO: 72/Peptide in well of a 96 well plate
[5] = 0.3 μL of DOTMA/SEQ ID NO: 72/Peptide in well of a 96 well plate
[6] = 0.4 μL of DOTMA/SEQ ID NO: 72/Peptide in well of a 96 well plate

Substance	RF (Relative Fluorescence) of Transfection of HeLa Cells (HeLa Cells [1])	RF (Relative Fluorescence) of Transfection of HuVec Cells (HuVec Cells)	RF (Relative Fluorescence) of Transfection of NL-1 iPS Cells (NL-1 iPS Cells)	RF (Relative Fluorescence) of Transfection of C2C12 Cells (C2C12 Cells)	RF (Relative Fluorescence) of Transfection of Human Fibroblast Cells (Human Fibroblast Cells)	RF (Relative Fluorescence) of Transfection of Jurkat Cells (Jurkat Cells)	transfection expression and the % cells transfected over the no peptide control (some examined cell types)	RF (Relative Fluorescence), DOTMA/SEQ ID NO: 72/Peptide, HeLa Cells (HeLa Cells [2]; [3])	RF (Relative Fluorescence), DOTMA/SEQ ID NO: 72/Peptide, HeLa Cells (HeLa Cells [2]; [4])	RF (Relative Fluorescence), DOTMA/SEQ ID NO: 72/Peptide, HeLa Cells (HeLa Cells [2]; [5])	RF (Relative Fluorescence), DOTMA/SEQ ID NO: 72/Peptide, HeLa Cells (HeLa Cells [2]; [6])
216 (YRVRVTPKEKTGPMKE; Peptidic transfection agent) [compound 216]	6181	14693	19626	1001	3117	3570	increased				
236 (KNNQKSEPLIGRKKT; Peptidic transfection agent) [compound 236]	7202 and 5042	14418	43542 and 22256		3630 and 3000		increased	5993	8846	8492	7316
345 (TAGSCLRKFSTMFLF; Peptidic transfection agent) [compound 345]	8493	2939	7836	6569	2816	2462	increased				
371 (GPAGKDGEAGAQG; Peptidic transfection agent) [compound 371]	5180	10669	17587	983	4584	6093					
224 (KPDVRSYTITG; Peptidic transfection agent) [compound 224]	5559	15945	25209	1469	5995	13170					
502 (RNIAEIIKDI; Peptidic transfection agent) [compound 502]				2589							
393 (LGTIPG; Peptidic transfection agent) [compound 393]							increased				
501 (DLGTAGSCLRRFSTM; Peptidic transfection agent) [compound 501]				5913	9473	12350	increased	23571	23993	20410	14749
